molecular target: T1, human chemokine receptor 2 isoform B (CCR2B) (Homo sapiens, UniProt P41597); assay: Calcium mobilization assay (FLIPR, MCP-1 stimulated CHOK1-CCR2B-A5 cells); format: cell-based; conditions: 20 nM MCP-1, antagonist activity, read-out: IC50 (inhibitor concentration required for 50% inhibition of specific calcium increases)
T1 construct: host or cells: CHO-K1 (CHOK1-CCR2B-A5)
T1 sequence (P41597 1-360 isoform P41597-2): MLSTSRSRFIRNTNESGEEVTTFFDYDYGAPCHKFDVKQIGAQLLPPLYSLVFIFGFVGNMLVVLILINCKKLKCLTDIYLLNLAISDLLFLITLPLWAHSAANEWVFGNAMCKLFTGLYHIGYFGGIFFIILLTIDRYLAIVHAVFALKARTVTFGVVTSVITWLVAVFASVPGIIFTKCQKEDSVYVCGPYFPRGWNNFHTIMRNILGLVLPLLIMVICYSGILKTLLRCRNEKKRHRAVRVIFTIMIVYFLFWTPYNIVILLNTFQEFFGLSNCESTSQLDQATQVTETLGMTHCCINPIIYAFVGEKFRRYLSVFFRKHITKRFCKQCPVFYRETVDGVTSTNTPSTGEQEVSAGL
Procedure: Calcium Mobilization Assay
CHOK1-CCR2B-A5 cells (from Euroscreen) stably overexpressing the human chemokine receptor 2 isoform B were cultured in Nutrient Hams F12 medium supplemented with 5% FBS, 100 U/ml penicillin, 100 μg/ml streptomycin, 400 μg/ml G418 and 5 μg/ml puromycin.
For the assay cells were grown overnight in 384-well black clear flat bottom polystyrene plates (Costar) at 37° C. at 5% CO2. After washing with DMEM, 20 mM Hepes, 2.5 mM probenecid, 0.1% BSA (DMEM assay buffer) cells were loaded with 4 μM Fluo-4 in the same DMEM assay buffer for 2 hours at 30° C. Excess dye was removed and cells were washed with DMEM assay buffer. 384-well compound plates were prepared with DMEM assay buffer/0.5% DMSO with or without various concentrations of test compounds. Usually compounds were tested for agonist and antagonist activity.
Test compounds were added to the assay plate and agonist activity was monitored as fluorescence for 80 seconds with a FLIPR (488 nm excitation; 510-570 nm emission; Molecular Devices). After 20-30 min. of incubation at 30° C., 20 nM MCP-1 (R&D; Roche) was added and fluorescence was monitored again for 80 seconds. Increases in intracellular calcium are reported as maximum fluorescence after agonist exposure minus basal fluorescence before exposure. Antagonist activity is indicated as inhibitor concentration required for 50% inhibition of specific calcium increases.

SMILES | IC50
COc1ccc(C(F)(F)F)cc1-c1cnc(C(=O)N2CCC(N3CCCC3)CC2)c(C)c1 [Example 33, [5-(2-Methoxy-5-trifluoromethyl-phenyl)-3-methyl-pyridin-2-yl]-(4-pyrrolidin-1-yl-piperidin-1-yl)-methanone] | 0.016 µM
Cc1cc(-c2ccc(F)c(C(F)(F)F)c2)cnc1C(=O)N1CCC(N2CCCC2)CC1 [Example 34, [5-(4-Fluoro-3-trifluoromethyl-phenyl)-3-methyl-pyridin-2-yl]-(4-pyrrolidin-1-yl-piperidin-1-yl)-methanone] | 0.059 µM
COc1ccc(-c2cnc(C(=O)N3CCC(N4CCCC4)CC3)c(C)c2)cc1C(F)(F)F [Example 35, [5-(4-Methoxy-3-trifluoromethyl-phenyl)-3-methyl-pyridin-2-yl]-(4-pyrrolidin-1-yl-piperidin-1-yl)-methanone] | 0.56 µM
Cc1cc(-c2cccc(C(F)(F)F)c2F)cnc1C(=O)N1CCC(N2CCCC2)CC1 [Example 36, [5-(2-Fluoro-3-trifluoromethyl-phenyl)-3-methyl-pyridin-2-yl]-(4-pyrrolidin-1-yl-piperidin-1-yl)-methanone] | 0.18 µM
Cc1cc(-c2cc(F)cc(C(F)(F)F)c2)cnc1C(=O)N1CCC(N2CCCC2)CC1 [Example 37, [5-(3-Fluoro-5-trifluoromethyl-phenyl)-3-methyl-pyridin-2-yl]-(4-pyrrolidin-1-yl-piperidin-1-yl)-methanone] | 0.036 µM
Cc1cc(-c2cccc(C(F)(F)F)c2)c(-c2cnc(N)nc2)nc1C(=O)N1CCC(N2CCCC2)CC1 [Example 39, [6-(2-Amino-pyrimidin-5-yl)-3-methyl-5-(3-trifluoromethyl-phenyl)-pyridin-2-yl]-(4-pyrrolidin-1-yl-piperidin-1-yl)-methanone] | 0.0058 µM
Cc1cc(-c2cccc(C(F)(F)F)c2)c(-c2ccc(N)nc2)nc1C(=O)N1CCC(N2CCCC2)CC1 [Example 40, [6′-Amino-5-methyl-3-(3-trifluoromethyl-phenyl)-[2,3′]bipyridinyl-6-yl]-(4-pyrrolidin-1-yl-piperidin-1-yl)-methanone] | 0.0039 µM
Cc1cc(-c2cccc(C(F)(F)F)c2)c(-c2ccc(O)nc2)nc1C(=O)N1CCC(N2CCCC2)CC1 [Example 41, [6′-Hydroxy-5-methyl-3-(3-trifluoromethyl-phenyl)-[2,3′]bipyridinyl-6-yl]-(4-pyrrolidin-1-yl-piperidin-1-yl)-methanone] | 0.016 µM
COc1ncc(-c2nc(C(=O)N3CCC(N4CCCC4)CC3)c(C)cc2-c2cccc(C(F)(F)F)c2)cn1 [Example 44, [6-(2-Methoxy-pyrimidin-5-yl)-3-methyl-5-(3-trifluoromethyl-phenyl)-pyridin-2-yl]-(4-pyrrolidin-1-yl-piperidin-1-yl)-methanone] | 0.012 µM
Cc1cc(-c2cccc(C(F)(F)F)c2)c(-c2cnccn2)nc1C(=O)N1CCC(N2CCCC2)CC1 [Example 51, [3-Methyl-6-pyrazin-2-yl-5-(3-trifluoromethyl-phenyl)-pyridin-2-yl]-(4-pyrrolidin-1-yl-piperidin-1-yl)-methanone] | 0.0055 µM
Cc1cc(-c2cccc(C(F)(F)F)c2)c(-c2cnc(O)nc2O)nc1C(=O)N1CCC(N2CCCC2)CC1 [Example 54, [6-(2,4-Dihydroxy-pyrimidin-5-yl)-3-methyl-5-(3-trifluoromethyl-phenyl)-pyridin-2-yl]-(4-pyrrolidin-1-yl-piperidin-1-yl)-methanone] | 0.12 µM

Next, values leading:

IC50 | SMILES
0.026 µM | Cc1cc(-c2cccc(C(F)(F)F)c2)c(C#N)nc1C(=O)N1CCC(N2CCCC2)CC1 [Example 42, 5-Methyl-6-(4-pyrrolidin-1-yl-piperidine-1-carbonyl)-3-(3-trifluoromethyl-phenyl)-pyridine-2-carbonitrile]
0.025 µM | Cc1cc(-c2cccc(C(F)(F)F)c2)c(C(N)=O)nc1C(=O)N1CCC(N2CCCC2)CC1 [Example 43, 5-Methyl-6-(4-pyrrolidin-1-yl-piperidine-1-carbonyl)-3-(3-trifluoromethyl-phenyl)-pyridine-2-carboxylic acid amide]
0.0075 µM | COC(=O)c1nc(C(=O)N2CCC(N3CCCC3)CC2)c(C)cc1-c1cccc(C(F)(F)F)c1 [Example 45, 5-Methyl-6-(4-pyrrolidin-1-yl-piperidine-1-carbonyl)-3-(3-trifluoromethyl-phenyl)-pyridine-2-carboxylic acid methyl ester]
0.012 µM | Cc1cc(-c2cccc(C(F)(F)F)c2)c(CO)nc1C(=O)N1CCC(N2CCCC2)CC1 [Example 46, [6-Hydroxymethyl-3-methyl-5-(3-trifluoromethyl-phenyl)-pyridin-2-yl]-(4-pyrrolidin-1-yl-piperidin-1-yl)-methanone]
0.31 µM | Cc1cc(-c2cccc(C(F)(F)F)c2)c(C(=O)O)nc1C(=O)N1CCC(N2CCCC2)CC1 [Example 47, 5-Methyl-6-(4-pyrrolidin-1-yl-piperidine-1-carbonyl)-3-(3-trifluoromethyl-phenyl)-pyridine-2-carboxylic acid]
0.012 µM | Cc1cc(-c2cccc(C(F)(F)F)c2)c(-c2cn[nH]c2)nc1C(=O)N1CCC(N2CCCC2)CC1 [Example 48, [3-Methyl-6-(1H-pyrazol-4-yl)-5-(3-trifluoromethyl-phenyl)-pyridin-2-yl]-(4-pyrrolidin-1-yl-piperidin-1-yl)-methanone]
0.01 µM | Cc1cc(-c2cccc(C(F)(F)F)c2)c(-c2cc[nH]n2)nc1C(=O)N1CCC(N2CCCC2)CC1 [Example 49, [3-Methyl-6-(1H-pyrazol-3-yl)-5-(3-trifluoromethyl-phenyl)-pyridin-2-yl]-(4-pyrrolidin-1-yl-piperidin-1-yl)-methanone]
0.018 µM | Cc1cc(-c2cccc(C(F)(F)F)c2)c(-c2cnn(C)c2)nc1C(=O)N1CCC(N2CCCC2)CC1 [Example 50, [3-Methyl-6-(1-methyl-1H-pyrazol-4-yl)-5-(3-trifluoromethyl-phenyl)-pyridin-2-yl]-(4-pyrrolidin-1-yl-piperidin-1-yl)-methanone]
0.015 µM | Cc1cc(-c2cccc(C(F)(F)F)c2)c(-c2ccnn2C)nc1C(=O)N1CCC(N2CCCC2)CC1 [Example 53, [3-Methyl-6-(2-methyl-2H-pyrazol-3-yl)-5-(3-trifluoromethyl-phenyl)-pyridin-2-yl]-(4-pyrrolidin-1-yl-piperidin-1-yl)-methanone]
0.13 µM | Cc1cc(-c2cccc(C(F)(F)F)c2)c(C(=O)NCCO)nc1C(=O)N1CCC(N2CCCC2)CC1 [Example 55, 5-Methyl-6-(4-pyrrolidin-1-yl-piperidine-1-carbonyl)-3-(3-trifluoromethyl-phenyl)-pyridine-2-carboxylic acid (2-hydroxy-ethyl)-amide]
0.013 µM | Cc1cc(-c2cccc(C(F)(F)F)c2)c(C(=O)Nc2cccnc2)nc1C(=O)N1CCC(N2CCCC2)CC1 [Example 56, 5-Methyl-6-(4-pyrrolidin-1-yl-piperidine-1-carbonyl)-3-(3-trifluoromethyl-phenyl)-pyridine-2-carboxylic acid pyridin-3-ylamide]
0.21 µM | Cc1cc(-c2cccc(C(F)(F)F)c2)c(C(=O)NC2CCN(C(=O)OC(C)(C)C)CC2)nc1C(=O)N1CCC(N2CCCC2)CC1 [Example 57, 4-{[5-Methyl-6-(4-pyrrolidin-1-yl-piperidine-1-carbonyl)-3-(3-trifluoromethyl-phenyl)-pyridine-2-carbonyl]-amino}-piperidine-1-carboxylic acid tert-butyl ester]
